Laboratory results reported in patent publication US10766902B2, “Wee-1 inhibiting pyrazolopyrimidinone compounds” (ALMAC DISCOVERY LIMITED, priority 2016, dated 2020).
pEC50, pIC50: −log10 of the molar value. Like-named read-outs stand apart in the source and are kept apart here.

Experiments:
PLK1 = PLK1 (Homo sapiens (Human), UniProt P53350); assay: SelectScreen Kinase Profiling: PLK1; assay type: biochemical; conditions: tested at 300-350 nM
Source text: (§1) Table 4 below highlights the selectivity of a representative compound of the invention, Example 5, against a panel of 50 kinases (assessed using the Invitrogen SelectScreen® Kinase Profiling Service).

panel of 50 kinases = assay: Invitrogen SelectScreen Kinase Profiling Service, selectivity over the panel; assay type: biochemical; conditions: compared with compounds of the prior art
Source text: as §1

EPHA2 = EPHA2 (Homo sapiens (Human), UniProt P29317); assay: SelectScreen Kinase Profiling: EPHA2; assay type: biochemical; conditions: tested at 300-350 nM
Source text: as §1

HT29 cells = assay: Cell viability (CellTiter-Glo), HT29; assay type: cell-based; conditions: Homo sapiens, HT-29; cell viability after 72 hours
Procedure: (§2) All cell lines (HT29, A427, A498, SKLU-1) were obtained from the American Type Culture Collection (ATCC), maintained in the recommended media supplemented with 10% (v/v) FBS, 1% (v/v) Penicillin/streptomycin and kept at 37° C. in a humidified atmosphere with 5% CO2. Cells were seeded in 96 wp format typically at a seeding density of 3500-5000 cells/well and treated after 24 hours with increasing concentration of compound from 0 to 100 μM in ½ log unit increments. Cell viability was assessed after 72 hours (HT29, A427) or after 6 days (SKLU-1, A498) by CellTiter-Glo® as recommended by the manufacturer's instructions (Promega). Analysis and EC50 values were derived using GraphPadPrism.

Wee-1 kinase = Wee-1 kinase (Homo sapiens (Human), UniProt P30291); assay: Measurement of Wee-1 kinase activity (ADP-Glo luminescence); assay type: biochemical; conditions: for IC50: data obtained as described in the experimental section of the current invention, read-out: Wee-1/nM
Wee-1 kinase, sequence (P30291 whole entry): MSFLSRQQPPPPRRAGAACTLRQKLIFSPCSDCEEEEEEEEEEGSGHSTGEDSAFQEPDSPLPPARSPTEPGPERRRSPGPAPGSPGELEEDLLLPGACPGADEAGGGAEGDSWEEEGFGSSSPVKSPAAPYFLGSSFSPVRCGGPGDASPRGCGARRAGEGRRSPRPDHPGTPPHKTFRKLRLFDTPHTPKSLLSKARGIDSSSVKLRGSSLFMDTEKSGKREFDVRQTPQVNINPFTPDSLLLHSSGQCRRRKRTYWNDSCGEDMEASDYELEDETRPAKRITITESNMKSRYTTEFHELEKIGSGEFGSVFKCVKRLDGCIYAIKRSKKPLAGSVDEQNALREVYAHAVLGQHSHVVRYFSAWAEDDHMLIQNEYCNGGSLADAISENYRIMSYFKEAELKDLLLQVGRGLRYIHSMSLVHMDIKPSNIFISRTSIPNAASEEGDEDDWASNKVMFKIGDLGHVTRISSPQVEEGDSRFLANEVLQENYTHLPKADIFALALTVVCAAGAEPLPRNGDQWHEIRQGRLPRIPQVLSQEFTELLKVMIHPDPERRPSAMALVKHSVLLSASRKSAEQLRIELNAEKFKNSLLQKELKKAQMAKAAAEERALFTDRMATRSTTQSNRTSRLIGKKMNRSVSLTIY
Outline: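 Activated Wee-1 preincubated 30 min at RT with compound in Tris/MgCl2 buffer with BSA and DTT, then reacted 1 h at RT with poly(Lys,Tyr 4:1) (2.0 μg/mL) and 30 μM ATP as added aliquot. ADP formed measured by ADP-Glo luminescence; IC50 by non-linear regression of % inhibition.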

RPS6KB1 (p70S6K) = RPS6KB1 (p70S6K) (Homo sapiens (Human), UniProt P23443); assay: SelectScreen Kinase Profiling: RPS6KB1 (p70S6K); assay type: biochemical; conditions: tested at 300-350 nM
Source text: as §1

PDGFRB (PDGFR beta) = PDGFRB (PDGFR beta) (Homo sapiens (Human), UniProt P09619); assay: SelectScreen Kinase Profiling: PDGFRB (PDGFR beta); assay type: biochemical; conditions: tested at 300-350 nM
Source text: as §1

IGF1R = IGF1R (Homo sapiens (Human), UniProt P08069); assay: SelectScreen Kinase Profiling: IGF1R; assay type: biochemical; conditions: tested at 300-350 nM
IGF1R, sequence (P08069 31-1367): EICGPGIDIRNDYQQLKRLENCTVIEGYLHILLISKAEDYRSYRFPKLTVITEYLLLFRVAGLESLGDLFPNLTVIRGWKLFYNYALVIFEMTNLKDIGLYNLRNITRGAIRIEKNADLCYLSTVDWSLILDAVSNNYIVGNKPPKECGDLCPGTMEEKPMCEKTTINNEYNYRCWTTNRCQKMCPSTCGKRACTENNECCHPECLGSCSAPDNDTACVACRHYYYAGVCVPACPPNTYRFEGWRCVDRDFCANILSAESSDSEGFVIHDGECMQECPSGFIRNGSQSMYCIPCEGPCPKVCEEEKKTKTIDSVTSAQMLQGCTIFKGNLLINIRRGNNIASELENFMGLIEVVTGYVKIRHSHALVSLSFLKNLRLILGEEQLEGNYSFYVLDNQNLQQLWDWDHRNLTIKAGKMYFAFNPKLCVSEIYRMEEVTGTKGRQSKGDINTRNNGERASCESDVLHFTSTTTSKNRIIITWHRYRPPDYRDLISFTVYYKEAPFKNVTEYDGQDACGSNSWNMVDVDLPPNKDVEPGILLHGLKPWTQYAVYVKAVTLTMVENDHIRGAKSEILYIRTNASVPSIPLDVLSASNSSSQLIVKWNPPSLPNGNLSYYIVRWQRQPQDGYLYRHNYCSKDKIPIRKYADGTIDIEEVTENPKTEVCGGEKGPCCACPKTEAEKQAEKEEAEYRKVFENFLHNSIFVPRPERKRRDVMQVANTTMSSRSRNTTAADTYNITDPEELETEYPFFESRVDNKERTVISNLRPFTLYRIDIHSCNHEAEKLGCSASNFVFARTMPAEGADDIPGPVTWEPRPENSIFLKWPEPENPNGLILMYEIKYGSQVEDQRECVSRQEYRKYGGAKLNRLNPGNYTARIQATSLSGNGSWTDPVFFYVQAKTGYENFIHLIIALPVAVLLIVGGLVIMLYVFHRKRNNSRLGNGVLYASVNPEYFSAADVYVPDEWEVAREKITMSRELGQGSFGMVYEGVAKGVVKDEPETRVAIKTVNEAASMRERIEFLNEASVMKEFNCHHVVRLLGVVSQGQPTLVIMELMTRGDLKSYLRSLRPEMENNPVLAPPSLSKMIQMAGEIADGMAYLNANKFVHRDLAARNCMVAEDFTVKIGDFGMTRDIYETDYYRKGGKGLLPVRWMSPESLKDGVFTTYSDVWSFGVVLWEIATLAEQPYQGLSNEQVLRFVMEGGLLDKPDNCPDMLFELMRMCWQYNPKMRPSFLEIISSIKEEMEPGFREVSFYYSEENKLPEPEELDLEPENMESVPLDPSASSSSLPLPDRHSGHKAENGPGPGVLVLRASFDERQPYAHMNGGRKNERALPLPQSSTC
Source text: as §1

CSNK2A1 (CK2 alpha 1) = CSNK2A1 (CK2 alpha 1) (Homo sapiens (Human), UniProt P68400); assay: SelectScreen Kinase Profiling: CSNK2A1 (CK2 alpha 1); assay type: biochemical; conditions: tested at 300-350 nM
Source text: as §1

SK-LU-1 cells = assay: Cell viability (CellTiter-Glo), SK-LU-1; assay type: cell-based; conditions: Homo sapiens, SK-LU-1, 144 h; cell viability after 6 days
Procedure: as §2

PRKCB1 (PKC beta I) = PRKCB1 (PKC beta I) (Homo sapiens (Human), UniProt P05771); assay: SelectScreen Kinase Profiling: PRKCB1 (PKC beta I); assay type: biochemical; conditions: tested at 300-350 nM
Source text: as §1

BTK = BTK (Homo sapiens (Human), UniProt Q06187); assay: SelectScreen Kinase Profiling: BTK; assay type: biochemical; conditions: tested at 300-350 nM
Source text: as §1

KIT = KIT (Homo sapiens (Human), UniProt P10721); assay: SelectScreen Kinase Profiling: KIT; assay type: biochemical; conditions: tested at 300-350 nM
KIT, sequence (P10721 26-976): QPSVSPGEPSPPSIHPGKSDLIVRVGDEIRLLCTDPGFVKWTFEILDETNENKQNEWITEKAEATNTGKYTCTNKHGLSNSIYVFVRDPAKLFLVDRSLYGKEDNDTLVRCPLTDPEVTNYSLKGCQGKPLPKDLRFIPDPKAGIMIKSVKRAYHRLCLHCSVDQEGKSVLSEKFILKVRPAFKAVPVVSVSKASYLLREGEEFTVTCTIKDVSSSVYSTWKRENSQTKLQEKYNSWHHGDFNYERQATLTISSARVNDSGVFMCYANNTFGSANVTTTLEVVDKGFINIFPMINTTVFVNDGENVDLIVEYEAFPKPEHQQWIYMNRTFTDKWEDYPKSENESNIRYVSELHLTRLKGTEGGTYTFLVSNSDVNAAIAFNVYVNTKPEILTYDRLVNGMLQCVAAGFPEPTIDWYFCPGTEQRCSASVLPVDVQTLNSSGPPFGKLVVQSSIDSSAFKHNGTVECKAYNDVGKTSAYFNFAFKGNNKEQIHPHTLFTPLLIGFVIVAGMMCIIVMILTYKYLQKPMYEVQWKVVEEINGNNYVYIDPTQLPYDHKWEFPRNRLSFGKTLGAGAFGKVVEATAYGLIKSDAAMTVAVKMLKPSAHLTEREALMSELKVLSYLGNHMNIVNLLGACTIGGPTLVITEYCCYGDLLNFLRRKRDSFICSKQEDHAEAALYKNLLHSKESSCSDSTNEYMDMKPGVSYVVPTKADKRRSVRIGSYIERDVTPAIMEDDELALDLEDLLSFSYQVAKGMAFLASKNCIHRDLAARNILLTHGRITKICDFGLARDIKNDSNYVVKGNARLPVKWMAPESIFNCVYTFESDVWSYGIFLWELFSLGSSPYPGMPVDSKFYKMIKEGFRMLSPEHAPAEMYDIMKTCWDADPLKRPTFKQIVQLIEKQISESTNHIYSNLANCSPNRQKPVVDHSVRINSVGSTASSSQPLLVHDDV
Source text: as §1

MET (cMet) = MET (cMet) (Homo sapiens (Human), UniProt P08581); assay: SelectScreen Kinase Profiling: MET (cMet); assay type: biochemical; conditions: tested at 300-350 nM
Source text: as §1

AURKA (Aurora A) = AURKA (Aurora A) (Homo sapiens (Human), UniProt O14965); assay: SelectScreen Kinase Profiling: AURKA (Aurora A); assay type: biochemical; conditions: tested at 300-350 nM
AURKA (Aurora A), sequence (O14965 whole entry): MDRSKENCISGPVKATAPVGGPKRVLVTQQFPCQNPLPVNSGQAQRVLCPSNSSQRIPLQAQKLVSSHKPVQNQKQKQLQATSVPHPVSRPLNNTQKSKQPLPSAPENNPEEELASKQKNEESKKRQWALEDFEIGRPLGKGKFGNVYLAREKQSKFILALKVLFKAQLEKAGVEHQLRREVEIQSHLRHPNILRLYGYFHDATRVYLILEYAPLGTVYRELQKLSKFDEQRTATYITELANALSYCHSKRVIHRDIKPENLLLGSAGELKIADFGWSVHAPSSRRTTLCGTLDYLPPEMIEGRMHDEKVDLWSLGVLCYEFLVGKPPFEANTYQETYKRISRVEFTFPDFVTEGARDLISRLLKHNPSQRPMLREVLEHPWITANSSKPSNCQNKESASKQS
Source text: as §1

NTRK1 (TRKA) = NTRK1 (TRKA) (Homo sapiens (Human), UniProt P04629); assay: SelectScreen Kinase Profiling: NTRK1 (TRKA); assay type: biochemical; conditions: tested at 300-350 nM
Source text: as §1

CDK1/cyclin B = CDK1/cyclin B (Homo sapiens (Human), UniProt P06493); assay: SelectScreen Kinase Profiling: CDK1/cyclin B; assay type: biochemical; conditions: tested at 300-350 nM
Source text: as §1

INSR = INSR (Homo sapiens (Human), UniProt P06213); assay: SelectScreen Kinase Profiling: INSR; assay type: biochemical; conditions: tested at 300-350 nM
Source text: as §1

AKT1 (PKB alpha) = AKT1 (PKB alpha) (Homo sapiens (Human), UniProt P31749); assay: SelectScreen Kinase Profiling: AKT1 (PKB alpha); assay type: biochemical; conditions: tested at 300-350 nM
Source text: as §1

SYK = SYK (Homo sapiens (Human), UniProt P43405); assay: SelectScreen Kinase Profiling: SYK; assay type: biochemical; conditions: tested at 300-350 nM
Source text: as §1

ACVR1B (ALK4) = ACVR1B (ALK4) (Homo sapiens (Human), UniProt P36896); assay: SelectScreen Kinase Profiling: ACVR1B (ALK4); assay type: biochemical; conditions: tested at 300-350 nM
ACVR1B (ALK4), sequence (P36896 24-505): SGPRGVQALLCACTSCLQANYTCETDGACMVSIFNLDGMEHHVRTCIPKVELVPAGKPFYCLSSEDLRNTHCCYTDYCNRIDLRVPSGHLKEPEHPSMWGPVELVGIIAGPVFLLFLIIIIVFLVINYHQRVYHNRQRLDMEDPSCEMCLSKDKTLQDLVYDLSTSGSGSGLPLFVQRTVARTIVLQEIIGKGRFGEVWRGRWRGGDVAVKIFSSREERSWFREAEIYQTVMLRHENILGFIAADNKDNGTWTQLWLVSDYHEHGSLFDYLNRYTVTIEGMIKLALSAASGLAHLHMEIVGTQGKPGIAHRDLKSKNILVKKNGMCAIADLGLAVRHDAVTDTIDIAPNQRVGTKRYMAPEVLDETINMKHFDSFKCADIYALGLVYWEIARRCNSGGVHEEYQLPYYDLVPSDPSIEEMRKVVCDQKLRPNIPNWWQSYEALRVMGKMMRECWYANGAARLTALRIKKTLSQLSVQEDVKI
Source text: as §1

MAP2K1 (MEK1) = MAP2K1 (MEK1) (Homo sapiens (Human), UniProt Q02750); assay: SelectScreen Kinase Profiling: MAP2K1 (MEK1); assay type: biochemical; conditions: tested at 300-350 nM
Source text: as §1

NEK1 = NEK1 (Homo sapiens (Human), UniProt Q96PY6); assay: SelectScreen Kinase Profiling: NEK1; assay type: biochemical; conditions: tested at 300-350 nM
NEK1, sequence (Q96PY6 whole entry): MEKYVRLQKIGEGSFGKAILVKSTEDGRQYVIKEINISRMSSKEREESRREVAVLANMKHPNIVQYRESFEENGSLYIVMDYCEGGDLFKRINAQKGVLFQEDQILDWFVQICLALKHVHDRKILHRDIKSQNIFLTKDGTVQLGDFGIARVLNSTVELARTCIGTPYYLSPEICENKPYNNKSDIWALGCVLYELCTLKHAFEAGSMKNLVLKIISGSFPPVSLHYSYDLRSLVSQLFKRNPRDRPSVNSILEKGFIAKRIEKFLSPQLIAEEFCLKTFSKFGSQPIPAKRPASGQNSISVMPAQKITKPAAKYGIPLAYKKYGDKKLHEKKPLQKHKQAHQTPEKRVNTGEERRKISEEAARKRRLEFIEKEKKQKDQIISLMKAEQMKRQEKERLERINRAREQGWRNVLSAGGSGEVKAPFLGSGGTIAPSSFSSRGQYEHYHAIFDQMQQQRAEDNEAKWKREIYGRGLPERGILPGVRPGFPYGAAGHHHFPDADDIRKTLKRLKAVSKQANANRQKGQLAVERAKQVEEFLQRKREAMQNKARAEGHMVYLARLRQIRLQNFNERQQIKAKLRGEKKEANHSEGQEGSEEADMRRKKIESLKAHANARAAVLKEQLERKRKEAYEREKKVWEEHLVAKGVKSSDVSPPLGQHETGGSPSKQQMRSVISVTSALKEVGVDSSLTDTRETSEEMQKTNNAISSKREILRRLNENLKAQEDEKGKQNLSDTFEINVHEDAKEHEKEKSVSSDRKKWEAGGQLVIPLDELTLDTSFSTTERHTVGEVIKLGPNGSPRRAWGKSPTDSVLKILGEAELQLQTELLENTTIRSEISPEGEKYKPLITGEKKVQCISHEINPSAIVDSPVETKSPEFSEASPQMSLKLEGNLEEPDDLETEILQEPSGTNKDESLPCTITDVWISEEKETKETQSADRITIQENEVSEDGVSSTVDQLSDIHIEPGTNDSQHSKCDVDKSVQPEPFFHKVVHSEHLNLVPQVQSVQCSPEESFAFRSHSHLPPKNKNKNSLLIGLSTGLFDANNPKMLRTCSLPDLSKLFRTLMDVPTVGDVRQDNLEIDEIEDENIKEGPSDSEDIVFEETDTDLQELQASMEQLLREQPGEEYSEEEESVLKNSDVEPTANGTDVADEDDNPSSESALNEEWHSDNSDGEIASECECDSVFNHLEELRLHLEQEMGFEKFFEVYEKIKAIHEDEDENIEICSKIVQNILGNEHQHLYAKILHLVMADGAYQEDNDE
Source text: as §1

IKBKB (IKK beta) = IKBKB (IKK beta) (Homo sapiens (Human), UniProt O14920); assay: SelectScreen Kinase Profiling: IKBKB (IKK beta); assay type: biochemical; conditions: tested at 300-350 nM
Source text: as §1

FLT3 = FLT3 (Homo sapiens (Human), UniProt P36888); assay: SelectScreen Kinase Profiling: FLT3; assay type: biochemical; conditions: tested at 300-350 nM
Source text: as §1

Structure (SMILES): C=CCn1c(=O)c2cnc(Nc3ccc(N4CCN(C)CC4)cc3)nc2n1-c1cccc(N=S(C)(C)=O)n1 [Example 5, 1-(6-{[Dimethyl(oxo)-λ^6-sulfanylidene]amino}pyridine-2-yl)-6-{[4-(4-methylpiperazin-1-yl)phenyl]amino}-2-(prop-2-en-1-yl)-1H,2H,3H-pyrazolo[3,4-d]pyrimidin-3-one]
- inhibition of PLK1 (PLK1): − (inhibition under 50% (tested at 300-350 nM))
- selectivity against a panel of 50 kinases (panel of 50 kinases): greater selectivity
- inhibition of EPHA2 (EPHA2): − (inhibition under 50% (tested at 300-350 nM))
- pEC50 (HT29 cells): 7.48
- IC50 (Wee-1 kinase; Table 5): 1.2 nM
- IC50 (Wee-1 kinase; Table 7): 1.2 nM
- pIC50 (Wee-1 kinase; read-out: Wee1 IC50): 8.92
- inhibition of RPS6KB1 (p70S6K) (RPS6KB1 (p70S6K)): − (inhibition under 50% (tested at 300-350 nM))
- inhibition of PDGFRB (PDGFR beta) (PDGFRB (PDGFR beta)): − (inhibition under 50% (tested at 300-350 nM))
- inhibition of IGF1R (IGF1R): − (inhibition under 50% (tested at 300-350 nM))
- inhibition of CSNK2A1 (CK2 alpha 1) (CSNK2A1 (CK2 alpha 1)): − (inhibition under 50% (tested at 300-350 nM))
- pEC50 (SK-LU-1 cells): 7.92
- inhibition of PRKCB1 (PKC beta I) (PRKCB1 (PKC beta I)): − (inhibition under 50% (tested at 300-350 nM))
- inhibition of BTK (BTK): − (inhibition under 50% (tested at 300-350 nM))
- inhibition of KIT (KIT): − (inhibition under 50% (tested at 300-350 nM))
- inhibition of MET (cMet) (MET (cMet)): − (inhibition under 50% (tested at 300-350 nM))
- inhibition of AURKA (Aurora A) (AURKA (Aurora A)): − (inhibition under 50% (tested at 300-350 nM))
- inhibition of NTRK1 (TRKA) (NTRK1 (TRKA)): − (inhibition under 50% (tested at 300-350 nM))
- inhibition of CDK1/cyclin B (CDK1/cyclin B): − (inhibition under 50% (tested at 300-350 nM))
- inhibition of INSR (INSR): − (inhibition under 50% (tested at 300-350 nM))
- inhibition of AKT1 (PKB alpha) (AKT1 (PKB alpha)): − (inhibition under 50% (tested at 300-350 nM))
- inhibition of SYK (SYK): − (inhibition under 50% (tested at 300-350 nM))
- inhibition of ACVR1B (ALK4) (ACVR1B (ALK4)): − (inhibition under 50% (tested at 300-350 nM))
- inhibition of MAP2K1 (MEK1) (MAP2K1 (MEK1)): − (inhibition under 50% (tested at 300-350 nM))
- inhibition of NEK1 (NEK1): − (inhibition under 50% (tested at 300-350 nM))
- inhibition of IKBKB (IKK beta) (IKBKB (IKK beta)): − (inhibition under 50% (tested at 300-350 nM))
- inhibition of FLT3 (FLT3): − (inhibition under 50% (tested at 300-350 nM))
